Data from publication PMC8724251, “A Supramolecular Nanoparticle of Pemetrexed Improves the Anti-Tumor Effect by Inhibiting Mitochondrial Energy Metabolism” (Frontiers in Bioengineering and Biotechnology, 2021).
Where two headings read alike, the source gives them in different places. Square brackets hold non-standard residues; d marks the D form. Ends that are not written are not given here. Peptide text beside a SMILES is read from it. * marks the point of attachment. ξ: configuration not given here. X1 = Nc1nc2[nH]cc(CCc3ccc(C(=O)*)cc3)c2c(=O)[nH]1; ξE = NC(CCC(=O)O)C(=O)O

Assays:
Lewis lung tumors = experiment: In vivo antitumor efficacy in LLC tumor-bearing mice; design: species or system C57BL/6J mice; settings: LLC subcutaneous tumors, i.v., 20 mg/kg, two injections, tumor volumes within 2 weeks, n = 5
Description: (§1) C57BL/6J mice were subcutaneously inoculated with Lewis lung tumors and then randomly divided into four groups (5 mice per group) when the tumor sizes were approximately 100 mm^3. Mice in Groups 1 and 2 received PBS and FFRGD gels through i.v. injections, while mice in Groups 3 and 4 were administered 20 mg/kg PEM and PEM-FFRGD nanoparticles by i.v. injection. Repeated injections were administered on Days 1 and 5. Tumor size and body weight were monitored every 2 days, and the tumor volume was calculated according to the following formula: tumor volume (V, mm^3) = (tumor width)^2 × (tumor length)/2.

LLC cells [1] = experiment: Live/dead assay (calcein-AM / EthD-1), LLC cells; assay type: cell-based; settings: 6 μM, 72 h, calcein-AM/EthD-1, microscopy
Description: (§2) LLC cells and A549 cells (5,000 cells/well) were plated in 96-well plates and cultured for 24 h. Then, the cells were cocultured with 6 and 12 µM PEM and PEM-FFRGD for 72 h, respectively. The cells were washed with PBS and stained with calcein-AM and ethidium homodimer-1 (EthD-1) for 15 min. Then, the cells were viewed under microscopy (TI-S, Nikon, United States).

LLC cells [2] = experiment: MTT viability assay, LLC cells
Description: (§3) Lewis lung cancer (LLC) and A549 cells (100 µl) were plated at a concentration of 5 × 10^3 cells/well in a flat-bottomed 96-well plate on Day 0. […] Then, the culture medium was removed, and MTT (0.5 mg/ml) was added to each well and incubated for 4 h. The supernatant was discarded, and dimethyl sulfoxide (100 µl) was used to completely dissolve the crystals.

A549 cells [3] = experiment: Live/dead assay (calcein-AM / EthD-1), A549 cells; assay type: cell-based; settings: 12 μM, 72 h, calcein-AM/EthD-1, microscopy
Description: as §2

A549 cells [4] = experiment: MTT viability assay, A549 cells
Description: as §3

[5] = Body weight and serum TNFα, IL-6, ALT, AST in LLC tumor-bearing mice; assay type: in vivo, C57BL/6J mice; settings: for mouse weight: i.v., monitored every 2 days
Description: as §1

[6] = LLC tumor-bearing mice, i.v. 20 mg/kg, n = 5

Molecule | tumor growth (Lewis lung tumors) | cell killing in live/dead staining, LLC cells (LLC cells [1]) | cytotoxicity toward LLC cells, 24 h (LLC cells [2]) | cell killing in live/dead staining, A549 cells (A549 cells [3]) | cytotoxicity toward A549 cells, 24 h (A549 cells [4]) | mouse weight ([5]; LLC tumor-bearing mice, n = 5) | cell toxicity at 100 μM (LLC cells) (LLC cells [2]; MTT, 100 μM, 72 h) | cell toxicity at 100 μM (A549 cells) (A549 cells [4]; MTT, 100 μM, 72 h) | cytotoxic activity toward LLC cells compared with PEM alone (LLC cells [2]) | cytotoxicity toward LLC cells, 48 h (LLC cells [2]) | cytotoxicity toward A549 cells, 24 h (A549 cells [4]; MTT, different concentrations, 24 h incubation) | cytotoxicity toward A549 cells, 48 h (A549 cells [4]; MTT, different concentrations, 48 h incubation, viability lower than with PEM) | cytotoxic activity toward A549 cells compared with PEM alone (A549 cells [4]; MTT, series of concentrations, 72 h) | serum level of ALT versus PBS and PEM alone [5, 6] | serum level of AST versus PBS and PEM alone [5, 6] | serum level of IL-6 versus PBS and PEM alone [5, 6] | serum level of TNFα versus PBS and PEM alone [5, 6] | systemic toxicity in mice ([5]; from body weight and serum TNFα, IL-6, ALT, AST)
Nc1nc2[nH]cc(CCc3ccc(C(=O)N[C@@H](CCC(=O)O)C(=O)O)cc3)c2c(=O)[nH]1 [PEM, Pemetrexed] | significantly inhibited | could kill most cells | no cytotoxicity | could kill most cells | no cytotoxicity | no influence on mouse weight | – | – | – | – | – | – | – | – | – | – | – | –
FFRGD [FFRGD, reference compound] | – | – | – | – | – | no influence on mouse weight | did not display any distinct cell toxicity | did not display any distinct cell toxicity | – | – | – | – | – | – | – | – | – | –
N=C(N)NCCC[C@H](NC(=O)[C@H](Cc1ccccc1)NC(=O)[C@H](Cc1ccccc1)NC(=O)C(CCC(=O)O)NC(=O)c1ccc(CCc2c[nH]c3nc(N)[nH]c(=O)c23)cc1)C(=O)NCC(=O)N[C@@H](CC(=O)O)C(=O)O (some centres unmarked) [PEM-FFRGD] (X1-[ξE]FFRGD-OH) | – | – | no cytotoxicity | – | – | – | – | – | stronger cytotoxic activity | showed cytotoxic activity | no cytotoxicity | showed cytotoxic activity | stronger cytotoxic activity | not different | not different | not different | not different | no systemic toxicity
